Results as given in ChEMBL document CHEMBL4393680, “Design, synthesis and biological evaluation of novel thioquinazolinone-based 2-aminobenzamide derivatives as potent histone deacetylase (HDAC) inhibitors” (Eur J Med Chem, 2019).
Activity calls are given as the source filed them. The calls are words filed in the database; no cut-off is given here.

Experiments:
SMMC-7721 [1] = test: Cell cycle arrest in human SMMC7721 cells assessed as accumulation at S phase at 0.25 uM incubated for 48 hrs by propidium iodide staining based flow cytometry (Rvb=6.83%); type: functional
SMMC-7721 [2] = test: Induction of apoptosis in human SMMC7721 cells assessed as late apoptotic cells at 0.25 uM incubated for 48 hrs by Annexin-V-FITC/propidium iodide staining based flow cytometry (Rvb=1.73%); type: functional
A549 [3] = test: Antiproliferative activity against human A549 cells assessed as reduction in cell growth at 2 uM incubated for 72 hrs by CCK-8 assay relative to control; type: functional; details: A549, 72 h
HeLa [4] = test: Antiproliferative activity against human HeLa cells assessed as reduction in cell growth at 2 uM incubated for 72 hrs by CCK-8 assay relative to control; type: functional
HeLa [5] = test: Antiproliferative activity against human HeLa cells assessed as reduction in cell growth at 8 uM incubated for 72 hrs by CCK-8 assay relative to control; type: functional
SMMC-7721 [6] = test: Cell cycle arrest in human SMMC7721 cells assessed as accumulation at G2/M phase at 1 uM incubated for 48 hrs by propidium iodide staining based flow cytometry (Rvb=16.17%); type: functional
A549 [7] = test: Antiproliferative activity against human A549 cells assessed as reduction in cell growth at 8 uM incubated for 72 hrs by CCK-8 assay relative to control; type: functional; details: A549, 72 h
Histone deacetylase 1 = Histone deacetylase 1 (Homo sapiens, UniProt Q13547); test: Inhibition of human recombinant His-tagged HDAC1 (482 residues) expressed in baculovirus infected insect cells using FLUOR DE LYS SIRT1 as substrate incubated for 10 mins followed by substrate addition and measured after 30 mins by fluorescence method
Sequence of Histone deacetylase 1 (Q13547 whole entry): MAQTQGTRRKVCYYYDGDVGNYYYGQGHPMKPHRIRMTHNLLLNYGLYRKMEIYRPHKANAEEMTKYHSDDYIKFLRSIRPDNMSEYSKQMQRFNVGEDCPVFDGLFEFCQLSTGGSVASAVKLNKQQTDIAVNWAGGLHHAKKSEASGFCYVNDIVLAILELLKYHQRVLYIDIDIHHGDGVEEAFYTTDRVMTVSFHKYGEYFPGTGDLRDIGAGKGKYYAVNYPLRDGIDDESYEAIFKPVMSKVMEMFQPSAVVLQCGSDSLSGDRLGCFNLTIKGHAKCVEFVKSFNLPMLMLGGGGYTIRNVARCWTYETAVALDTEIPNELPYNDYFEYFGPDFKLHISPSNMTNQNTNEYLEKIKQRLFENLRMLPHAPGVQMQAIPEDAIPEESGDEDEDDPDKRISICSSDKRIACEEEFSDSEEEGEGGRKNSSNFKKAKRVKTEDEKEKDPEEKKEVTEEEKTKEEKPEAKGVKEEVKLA

NIH3T3 = test: Cytotoxicity against mouse NIH/3T3 cells assessed as reduction in cell viability after 48 hrs by CCK8 assay; type: cell-based; details: NIH3T3, 48 h
SMMC-7721 [8] = test: Induction of apoptosis in human SMMC7721 cells assessed as necrotic cells at 4 uM incubated for 48 hrs by Annexin-V-FITC/propidium iodide staining based flow cytometry (Rvb=1.88%); type: functional
SMMC-7721 [9] = test: Antiproliferative activity against human SMMC7721 cells assessed as reduction in cell growth incubated for 72 hrs by CCK-8 assay; type: functional, cell-based; details: SMMC-7721, 72 h
SMMC-7721 [10] = test: Induction of apoptosis in human SMMC7721 cells assessed as early apoptotic cells at 4 uM incubated for 48 hrs by Annexin-V-FITC/propidium iodide staining based flow cytometry (Rvb=2.88%); type: functional
SMMC-7721 [11] = test: Cell cycle arrest in human SMMC7721 cells assessed as accumulation at G0/G1 phase at 1 uM incubated for 48 hrs by propidium iodide staining based flow cytometry (Rvb=77%); type: functional
Histone deacetylase 2 [12] = biological target: T1, Histone deacetylase 2 (Homo sapiens, UniProt Q92769); test: Inhibition of HDAC2 in human SMMC7721 cells assessed as increase in H3K9 acetylation at 1uM incubated for 48 hrs by DAPI staining based confocal fluorescence microscopy; type: cell-based
T1 sequence (Q92769 whole entry): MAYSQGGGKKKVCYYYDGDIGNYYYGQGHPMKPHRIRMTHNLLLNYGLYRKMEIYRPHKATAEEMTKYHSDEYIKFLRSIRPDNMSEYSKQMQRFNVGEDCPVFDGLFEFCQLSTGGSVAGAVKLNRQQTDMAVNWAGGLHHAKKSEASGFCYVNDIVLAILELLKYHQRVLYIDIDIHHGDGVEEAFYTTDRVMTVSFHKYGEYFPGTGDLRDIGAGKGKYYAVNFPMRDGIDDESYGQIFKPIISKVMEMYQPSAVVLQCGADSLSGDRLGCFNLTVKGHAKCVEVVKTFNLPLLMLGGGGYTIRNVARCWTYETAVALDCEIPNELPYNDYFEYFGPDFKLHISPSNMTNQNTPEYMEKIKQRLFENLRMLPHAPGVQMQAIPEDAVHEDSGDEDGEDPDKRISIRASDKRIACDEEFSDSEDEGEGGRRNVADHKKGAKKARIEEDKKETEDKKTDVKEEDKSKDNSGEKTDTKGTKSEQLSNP

A549 [13] = test: Antiproliferative activity against human A549 cells assessed as reduction in cell growth incubated for 72 hrs by CCK-8 assay; type: functional, cell-based; details: A549, 72 h
A-375 [14] = test: Antiproliferative activity against human A375 cells assessed as reduction in cell growth incubated for 72 hrs by CCK-8 assay; type: functional, cell-based; details: A-375, 72 h
A-375 [15] = test: Antiproliferative activity against human A375 cells assessed as reduction in cell growth at 2 uM incubated for 72 hrs by CCK-8 assay relative to control; type: functional; details: A-375, 72 h
Histone deacetylase 2 [16] = biological target: T1, Histone deacetylase 2; test: Inhibition of human recombinant His-tagged HDAC2 ([…]) expressed in baculovirus infected insect cells using FLUOR DE LYS Green as substrate preincubated for 10 mins followed by substrate addition and measured after 30 mins by fluorescence method
SMMC-7721 [17] = test: Antiproliferative activity against human SMMC7721 cells assessed as reduction in cell growth at 8 uM incubated for 72 hrs by CCK-8 assay relative to control; type: functional; details: SMMC-7721, 72 h
SMMC-7721 [18] = test: Induction of apoptosis in human SMMC7721 cells assessed as necrotic cells at 0.25 uM incubated for 48 hrs by Annexin-V-FITC/propidium iodide staining based flow cytometry (Rvb=1.88%); type: functional
Histone deacetylase = test: Inhibition of HDAC in human HeLa cell nuclear extract using fluor-de-lys-green as substrate preincubated for 10 mins followed by substrate addition and measured after 30 mins by fluorescence assay; type: cell-based
SMMC-7721 [19] = test: Induction of apoptosis in human SMMC7721 cells assessed as necrotic cells at 1 uM incubated for 48 hrs by Annexin-V-FITC/propidium iodide staining based flow cytometry (Rvb=1.88%); type: functional
SMMC-7721 [20] = test: Induction of apoptosis in human SMMC7721 cells assessed as early apoptotic cells at 1 uM incubated for 48 hrs by Annexin-V-FITC/propidium iodide staining based flow cytometry (Rvb=2.88%); type: functional
SMMC-7721 [21] = test: Induction of apoptosis in human SMMC7721 cells assessed as late apoptotic cells at 1 uM incubated for 48 hrs by Annexin-V-FITC/propidium iodide staining based flow cytometry (Rvb=1.73%); type: functional
SMMC-7721 [22] = test: Cell cycle arrest in human SMMC7721 cells assessed as accumulation at G0/G1 phase at 0.25 uM incubated for 48 hrs by propidium iodide staining based flow cytometry (Rvb=77%); type: functional
SMMC-7721 [23] = test: Induction of apoptosis in human SMMC7721 cells assessed as early apoptotic cells at 0.25 uM incubated for 48 hrs by Annexin-V-FITC/propidium iodide staining based flow cytometry (Rvb=2.88%); type: functional
SMMC-7721 [24] = test: Antiproliferative activity against human SMMC7721 cells assessed as reduction in cell growth at 2 uM incubated for 72 hrs by CCK-8 assay relative to control; type: functional; details: SMMC-7721, 72 h
SMMC-7721 [25] = test: Cell cycle arrest in human SMMC7721 cells assessed as accumulation at S phase at 1 uM incubated for 48 hrs by propidium iodide staining based flow cytometry (Rvb=6.83%); type: functional
SMMC-7721 [26] = test: Inhibition of colony formation in human SMMC7721 cells incubated for 10 days by crystal violet staining based assay; type: functional, cell-based
SMMC-7721 [27] = test: Induction of apoptosis in human SMMC7721 cells assessed as late apoptotic cells at 4 uM incubated for 48 hrs by Annexin-V-FITC/propidium iodide staining based flow cytometry (Rvb=1.73%); type: functional
SMMC-7721 [28] = test: Cell cycle arrest in human SMMC7721 cells assessed as accumulation at G2/M phase at 0.25 uM incubated for 48 hrs by propidium iodide staining based flow cytometry (Rvb=16.17%); type: functional
SMMC-7721 [29] = test: Cell cycle arrest in human SMMC7721 cells assessed as accumulation at G2/M phase at 4 uM incubated for 48 hrs by propidium iodide staining based flow cytometry (Rvb=16.17%); type: functional
HeLa [30] = test: Antiproliferative activity against human HeLa cells assessed as reduction in cell growth incubated for 72 hrs by CCK-8 assay; type: functional, cell-based
SMMC-7721 [31] = test: Induction of apoptosis in human SMMC7721 cells assessed as viable cells at 4 uM incubated for 48 hrs by Annexin-V-FITC/propidium iodide staining based flow cytometry (Rvb=93.5%); type: functional; details: SMMC-7721, 48 h, read-out: Activity
SMMC-7721 [32] = test: Cell cycle arrest in human SMMC7721 cells assessed as accumulation at S phase incubated for 48 hrs by propidium iodide staining-based flow cytometry; type: functional

SMILES	Activity (SMMC-7721 [1])	Activity (SMMC-7721 [2])	inhibition at 2 µM (A549 [3])	inhibition at 2 µM (HeLa [4])	inhibition at 8 µM (HeLa [5])	Activity (SMMC-7721 [6])	inhibition at 8 µM (A549 [7])	IC50 (Histone deacetylase 1)	IC50 (NIH3T3)	Activity (SMMC-7721 [8])	IC50 (SMMC-7721 [9])	Activity (SMMC-7721 [10])	Activity (SMMC-7721 [11])	inhibition (Histone deacetylase 2 [12])	IC50 (A549 [13])	IC50 (A-375 [14])	inhibition at 2 µM (A-375 [15])	IC50 (Histone deacetylase 2 [16])	inhibition at 8 µM (SMMC-7721 [17])	Activity (SMMC-7721 [18])	further results
COc1ccc2c(=O)n(C)c(SCc3ccc(C(=O)Nc4ccccc4N)cc3)nc2c1	22.23%	18.9%	38%	57.5%	87%	22.56%	82.8%	10 nM	2530 nM	10.6%	30 nM	13%	58.1%	Active	3060 nM	980 nM	52.2%	160 nM	79.3%	5.77%	IC50 (Histone deacetylase): 990 nM; Activity (SMMC-7721 [19]): 10.8%; Activity (SMMC-7721 [20]): 11.6%; Activity (SMMC-7721 [21]): 45.4%; Activity (SMMC-7721 [22]): 67.11%; Activity (SMMC-7721 [23]): 9.27%; inhibition at 2 µM (SMMC-7721 [24]): 68.8%; Activity (SMMC-7721 [25]): 19.34%; inhibition (SMMC-7721 [26]): Dose-dependent effect; Activity (SMMC-7721 [27]): 54.8%; Activity (SMMC-7721 [28]): 11.67%; Activity (SMMC-7721 [29]): 31.22%; IC50 (HeLa [30]): 1490 nM; viability at 4 µM (SMMC-7721 [31]): 21.7%
COc1ccc2c(=O)n(-c3ccccc3Cl)c(SCc3ccc(C(=O)Nc4ccccc4N)cc3)nc2c1	19.96%	13.1%	52.5%	54.4%	82.7%	37.07%	80.6%	380 nM	3390 nM	8.28%	2160 nM	5.54%	34.49%	Active	6270 nM	3510 nM	41.8%	610 nM	84.1%	2.7%	Activity (SMMC-7721 [32]): Dose-dependent effect; IC50 (Histone deacetylase): 830 nM; Activity (SMMC-7721 [19]): 7.63%; Activity (SMMC-7721 [20]): 7.67%; Activity (SMMC-7721 [21]): 19.1%; Activity (SMMC-7721 [22]): 48.75%; Activity (SMMC-7721 [23]): 15.9%; inhibition at 2 µM (SMMC-7721 [24]): 50.4%; Activity (SMMC-7721 [25]): 28.44%; inhibition (SMMC-7721 [26]): Dose-dependent effect; Activity (SMMC-7721 [27]): 20.4%; Activity (SMMC-7721 [28]): 31.29%; Activity (SMMC-7721 [29]): 27.3%; IC50 (HeLa [30]): 1320 nM; viability at 4 µM (SMMC-7721 [31]): 65.8%
Cn1c(SCc2ccc(C(=O)Nc3ccccc3N)cc2)nc2cc(Br)ccc2c1=O	15.53%	9.88%	37.5%	32.3%	72.8%	25.37%	66.2%	290 nM	4020 nM	15.1%	5580 nM	6.61%	56.35%	Active	4600 nM	2840 nM	34.5%	530 nM	70.6%	4.73%	Activity (SMMC-7721 [32]): Dose-dependent effect; IC50 (Histone deacetylase): 4940 nM; Activity (SMMC-7721 [19]): 13.6%; Activity (SMMC-7721 [20]): 3.12%; Activity (SMMC-7721 [21]): 33.8%; Activity (SMMC-7721 [22]): 65.59%; Activity (SMMC-7721 [23]): 6.01%; inhibition at 2 µM (SMMC-7721 [24]): 35.6%; Activity (SMMC-7721 [25]): 18.28%; inhibition (SMMC-7721 [26]): Dose-dependent effect; Activity (SMMC-7721 [27]): 51.4%; Activity (SMMC-7721 [28]): 18.88%; Activity (SMMC-7721 [29]): 19.19%; IC50 (HeLa [30]): 3970 nM; viability at 4 µM (SMMC-7721 [31]): 26.9%
CCn1c(SCc2ccc(/C=C/C(=O)Nc3ccccc3N)cc2)nc2cc(OC)ccc2c1=O	20.75%	9.65%	18.6%	24%	70.8%	33.16%	78.2%	100 nM	4800 nM	10%	60 nM	10.5%	50.71%	Active	1760 nM	940 nM	55%	180 nM	79.7%	4.51%	Activity (SMMC-7721 [32]): Dose-dependent effect; Activity (SMMC-7721 [19]): 8.91%; Activity (SMMC-7721 [20]): 16.4%; Activity (SMMC-7721 [21]): 28.8%; Activity (SMMC-7721 [22]): 61.58%; Activity (SMMC-7721 [23]): 6.55%; inhibition at 2 µM (SMMC-7721 [24]): 56.8%; Activity (SMMC-7721 [25]): 16.13%; inhibition (SMMC-7721 [26]): Dose-dependent effect; Activity (SMMC-7721 [27]): 38.2%; Activity (SMMC-7721 [28]): 17.67%; Activity (SMMC-7721 [29]): 17.68%; IC50 (HeLa [30]): 3410 nM; viability at 4 µM (SMMC-7721 [31]): 41.3%
